Laboratory results as given in ChEMBL document CHEMBL5678816, “A Next-Generation TRK Kinase Inhibitor Overcomes Acquired Resistance to Prior TRK Kinase Inhibition in Patients with TRK Fusion-Positive Solid Tumors” (Cancer Discov, 2017).
Active and inactive are the calls of the source. The rule behind the calls is not given here.

What was measured:
[1] = Oral bioavailability in rat at 10 mg/kg administered as 1% carboxymethylcellulose 0.5% Tween 80 formulation by LC-MS analysis; type: ADME, organism-based; conditions: in vivo
[2] = Clearance in rat at 1 mg/kg, iv administered as 20% hydroxypropyl-beta-cyclodextrin formulation by LC-MS analysis; type: ADME, organism-based; conditions: in vivo
[3] = Clearance in dog at 1 mg/kg, iv administered as 20% hydroxypropyl-beta-cyclodextrin formulation by LC-MS analysis; type: ADME, organism-based, Canis lupus familiaris; conditions: in vivo
DK-MG = assay: Inhibition of cell proliferation in human DK-MG cells upto 10 umol/L incubated for 72 hrs by DAPI staining based analysis; type: functional; conditions: dose <= 10.0 µmol/L
A 172 = assay: Inhibition of cell proliferation in human A-172 cells upto 10 umol/L incubated for 72 hrs by DAPI staining based analysis; type: functional; conditions: dose <= 10.0 µmol/L
SK-N-DZ = assay: Inhibition of cell proliferation in human SK-N-DZ cells upto 10 umol/L incubated for 72 hrs by DAPI staining based analysis; type: functional; conditions: dose <= 10.0 µmol/L
AN3-CA = assay: Inhibition of cell proliferation in human AN3-CA cells upto 10 umol/L incubated for 72 hrs by DAPI staining based analysis; type: functional; conditions: dose <= 10.0 µmol/L
SK-N-FI = assay: Inhibition of cell proliferation in human SK-N-FI cells upto 10 umol/L incubated for 72 hrs by DAPI staining based analysis; type: functional; conditions: dose <= 10.0 µmol/L
BHT-101 = assay: Inhibition of cell proliferation in human BHT-101 cells upto 10 umol/L incubated for 72 hrs by DAPI staining based analysis; type: functional; conditions: dose <= 10.0 µmol/L
HEL 92.1.7 = assay: Inhibition of cell proliferation in human HEL 92.1.7 cells upto 10 umol/L incubated for 72 hrs by DAPI staining based analysis; type: functional; conditions: dose <= 10.0 µmol/L
SW1353 = assay: Inhibition of cell proliferation in human SW1353 cells upto 10 umol/L incubated for 72 hrs by DAPI staining based analysis; type: functional; conditions: dose <= 10.0 µmol/L
BT-549 = assay: Inhibition of cell proliferation in human BT-549 cells upto 10 umol/L incubated for 72 hrs by DAPI staining based analysis; type: functional; conditions: dose <= 10.0 µmol/L
T-24 = assay: Inhibition of cell proliferation in human T24 cells upto 10 umol/L incubated for 72 hrs by DAPI staining based analysis; type: functional; conditions: dose <= 10.0 µmol/L
SAOS-2 = assay: Inhibition of cell proliferation in human SAOS-2 cells upto 10 umol/L incubated for 72 hrs by DAPI staining based analysis; type: functional; conditions: dose <= 10.0 µmol/L
TPC1 = assay: Inhibition of cell proliferation in human TPC1 cells upto 10 umol/L incubated for 72 hrs by DAPI staining based analysis; type: functional; conditions: dose <= 10.0 µmol/L
Caov-3 cell line = assay: Inhibition of cell proliferation in human Caov-3 cells upto 10 umol/L incubated for 72 hrs by DAPI staining based analysis; type: functional; conditions: dose <= 10.0 µmol/L
UMUC3 = assay: Inhibition of cell proliferation in human UMUC3 cells upto 10 umol/L incubated for 72 hrs by DAPI staining based analysis; type: functional; conditions: dose <= 10.0 µmol/L
CHL-1 = assay: Inhibition of cell proliferation in human CHL-1 cells upto 10 umol/L incubated for 72 hrs by DAPI staining based analysis; type: functional; conditions: dose <= 10.0 µmol/L
[4] = AUC in pediatric patient with recurrent ETV6-NTRK3-rearranged infantile fibrosarcoma at 20 mg administered twice a day as liquid formulation for 1 day by LC-MS/MS analysis; type: ADME; conditions: human, in vivo
[5] = biological target: Tyrosine-protein kinase Fgr (Homo sapiens) (UniProt P09769); assay: Inhibition of Fgr (unknown origin) at 1 uM in presence of ATP relative to control; values are per cent of control
[6] = biological target: Insulin receptor-related protein (Homo sapiens) (UniProt P14616); assay: Inhibition of IRR (unknown origin) at 1 uM in presence of ATP relative to control; values are per cent of control
[7] = biological target: Proto-oncogene tyrosine-protein kinase receptor Ret (Homo sapiens) (UniProt P07949); assay: Inhibition of Ret (unknown origin) at 1 uM in presence of ATP relative to control; values are per cent of control
[8] = biological target: cAMP-dependent protein kinase catalytic subunit PRKX (Homo sapiens) (UniProt P51817); assay: Inhibition of PrKX (unknown origin) at 1 uM in presence of ATP relative to control; values are per cent of control
[9] = biological target: Serine/threonine-protein kinase Sgk3 (Homo sapiens) (UniProt Q96BR1); assay: Inhibition of SGK3 (unknown origin) at 1 uM in presence of ATP relative to control; values are per cent of control
[10] = biological target: Serine/threonine-protein kinase D2 (Homo sapiens) (UniProt Q9BZL6); assay: Inhibition of PKD2 (unknown origin) at 1 uM in presence of ATP relative to control; values are per cent of control
[11] = biological target: Serine/threonine-protein kinase PAK 2 (Homo sapiens) (UniProt Q13177); assay: Inhibition of PAK2 (unknown origin) at 1 uM in presence of ATP relative to control; values are per cent of control
[12] = biological target: Serine/threonine-protein kinase TAO3 (Homo sapiens) (UniProt Q9H2K8); assay: Inhibition of TAO3 (unknown origin) at 1 uM in presence of ATP relative to control; values are per cent of control
[13] = biological target: Death-associated protein kinase 1 (Homo sapiens) (UniProt P53355); assay: Inhibition of DAPK1 (unknown origin) at 1 uM in presence of ATP relative to control; values are per cent of control
[14] = biological target: Ephrin type-B receptor 3 (Homo sapiens) (UniProt P54753); assay: Inhibition of EphB3 (unknown origin) at 1 uM in presence of ATP relative to control; values are per cent of control
[15] = biological target: Calcium/calmodulin-dependent protein kinase type II subunit gamma (Homo sapiens) (UniProt Q13555); assay: Inhibition of CAMK2g (unknown origin) at 1 uM in presence of ATP relative to control; values are per cent of control
[16] = biological target: Protein kinase C iota type (Homo sapiens) (UniProt P41743); assay: Inhibition of PKCiota (unknown origin) at 1 uM in presence of ATP relative to control; values are per cent of control
[17] = biological target: MAP kinase-activated protein kinase 2 (Homo sapiens) (UniProt P49137); assay: Inhibition of MAPKAP-K2 (unknown origin) at 1 uM in presence of ATP relative to control; values are per cent of control
[18] = biological target: Platelet-derived growth factor receptor alpha (Homo sapiens) (UniProt P16234); assay: Inhibition of PDGFRalpha (unknown origin) at 1 uM in presence of ATP relative to control; values are per cent of control

Proto-oncogene tyrosine-protein kinase receptor Ret (Homo sapiens), sequence (P07949 whole entry): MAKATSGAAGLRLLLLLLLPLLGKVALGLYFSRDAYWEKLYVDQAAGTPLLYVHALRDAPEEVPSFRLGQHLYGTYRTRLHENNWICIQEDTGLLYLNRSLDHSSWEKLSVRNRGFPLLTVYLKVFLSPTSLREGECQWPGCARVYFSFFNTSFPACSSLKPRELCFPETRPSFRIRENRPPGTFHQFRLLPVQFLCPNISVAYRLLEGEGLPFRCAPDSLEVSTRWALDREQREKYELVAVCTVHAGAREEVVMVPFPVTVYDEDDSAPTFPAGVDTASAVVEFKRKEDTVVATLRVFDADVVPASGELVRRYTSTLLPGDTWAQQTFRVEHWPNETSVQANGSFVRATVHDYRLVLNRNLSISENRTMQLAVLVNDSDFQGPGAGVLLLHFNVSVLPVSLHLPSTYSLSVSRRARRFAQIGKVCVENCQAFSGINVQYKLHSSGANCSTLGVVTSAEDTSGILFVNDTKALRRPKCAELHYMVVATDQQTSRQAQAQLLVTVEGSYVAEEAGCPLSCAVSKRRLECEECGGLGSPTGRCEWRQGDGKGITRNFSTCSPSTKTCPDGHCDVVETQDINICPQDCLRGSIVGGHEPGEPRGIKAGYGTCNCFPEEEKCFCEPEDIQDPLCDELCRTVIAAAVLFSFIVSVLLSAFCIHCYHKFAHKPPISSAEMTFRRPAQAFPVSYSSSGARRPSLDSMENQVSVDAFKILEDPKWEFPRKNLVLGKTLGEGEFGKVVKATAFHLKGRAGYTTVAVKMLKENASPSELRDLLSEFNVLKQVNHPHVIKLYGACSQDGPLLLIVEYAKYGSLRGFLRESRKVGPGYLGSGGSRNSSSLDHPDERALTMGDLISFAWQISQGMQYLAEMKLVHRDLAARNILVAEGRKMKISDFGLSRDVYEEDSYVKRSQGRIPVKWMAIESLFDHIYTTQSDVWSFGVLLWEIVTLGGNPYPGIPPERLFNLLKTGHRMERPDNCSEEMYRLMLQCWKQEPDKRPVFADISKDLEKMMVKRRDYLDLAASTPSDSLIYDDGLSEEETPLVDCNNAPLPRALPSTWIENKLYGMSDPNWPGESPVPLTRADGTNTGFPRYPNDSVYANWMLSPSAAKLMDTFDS
Serine/threonine-protein kinase Sgk3 (Homo sapiens), sequence (Q96BR1 whole entry): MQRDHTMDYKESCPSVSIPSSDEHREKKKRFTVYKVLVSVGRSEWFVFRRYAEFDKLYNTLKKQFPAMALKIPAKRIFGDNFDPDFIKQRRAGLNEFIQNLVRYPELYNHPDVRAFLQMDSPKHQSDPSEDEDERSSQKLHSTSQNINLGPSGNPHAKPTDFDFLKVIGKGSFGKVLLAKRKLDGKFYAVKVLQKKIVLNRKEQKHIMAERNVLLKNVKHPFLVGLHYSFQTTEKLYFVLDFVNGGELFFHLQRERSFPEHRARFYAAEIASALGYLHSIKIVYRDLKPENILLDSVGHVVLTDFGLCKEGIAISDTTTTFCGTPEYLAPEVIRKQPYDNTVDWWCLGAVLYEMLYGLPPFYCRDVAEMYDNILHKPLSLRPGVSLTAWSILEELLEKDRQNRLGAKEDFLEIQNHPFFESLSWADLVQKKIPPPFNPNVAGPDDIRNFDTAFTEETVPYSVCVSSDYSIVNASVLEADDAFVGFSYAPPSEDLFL
MAP kinase-activated protein kinase 2 (Homo sapiens), sequence (P49137 whole entry, looked up): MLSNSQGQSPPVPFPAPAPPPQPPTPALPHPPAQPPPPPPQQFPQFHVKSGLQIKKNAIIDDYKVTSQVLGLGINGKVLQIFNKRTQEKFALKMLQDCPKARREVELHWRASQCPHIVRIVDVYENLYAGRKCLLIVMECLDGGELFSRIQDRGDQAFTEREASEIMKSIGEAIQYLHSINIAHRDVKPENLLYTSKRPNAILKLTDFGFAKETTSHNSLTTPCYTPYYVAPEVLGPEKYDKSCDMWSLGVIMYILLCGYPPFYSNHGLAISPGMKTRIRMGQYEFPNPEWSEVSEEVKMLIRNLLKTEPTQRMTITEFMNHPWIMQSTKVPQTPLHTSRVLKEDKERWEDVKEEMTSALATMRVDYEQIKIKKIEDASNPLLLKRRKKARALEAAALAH
Death-associated protein kinase 1 (Homo sapiens), sequence (P53355 whole entry, looked up): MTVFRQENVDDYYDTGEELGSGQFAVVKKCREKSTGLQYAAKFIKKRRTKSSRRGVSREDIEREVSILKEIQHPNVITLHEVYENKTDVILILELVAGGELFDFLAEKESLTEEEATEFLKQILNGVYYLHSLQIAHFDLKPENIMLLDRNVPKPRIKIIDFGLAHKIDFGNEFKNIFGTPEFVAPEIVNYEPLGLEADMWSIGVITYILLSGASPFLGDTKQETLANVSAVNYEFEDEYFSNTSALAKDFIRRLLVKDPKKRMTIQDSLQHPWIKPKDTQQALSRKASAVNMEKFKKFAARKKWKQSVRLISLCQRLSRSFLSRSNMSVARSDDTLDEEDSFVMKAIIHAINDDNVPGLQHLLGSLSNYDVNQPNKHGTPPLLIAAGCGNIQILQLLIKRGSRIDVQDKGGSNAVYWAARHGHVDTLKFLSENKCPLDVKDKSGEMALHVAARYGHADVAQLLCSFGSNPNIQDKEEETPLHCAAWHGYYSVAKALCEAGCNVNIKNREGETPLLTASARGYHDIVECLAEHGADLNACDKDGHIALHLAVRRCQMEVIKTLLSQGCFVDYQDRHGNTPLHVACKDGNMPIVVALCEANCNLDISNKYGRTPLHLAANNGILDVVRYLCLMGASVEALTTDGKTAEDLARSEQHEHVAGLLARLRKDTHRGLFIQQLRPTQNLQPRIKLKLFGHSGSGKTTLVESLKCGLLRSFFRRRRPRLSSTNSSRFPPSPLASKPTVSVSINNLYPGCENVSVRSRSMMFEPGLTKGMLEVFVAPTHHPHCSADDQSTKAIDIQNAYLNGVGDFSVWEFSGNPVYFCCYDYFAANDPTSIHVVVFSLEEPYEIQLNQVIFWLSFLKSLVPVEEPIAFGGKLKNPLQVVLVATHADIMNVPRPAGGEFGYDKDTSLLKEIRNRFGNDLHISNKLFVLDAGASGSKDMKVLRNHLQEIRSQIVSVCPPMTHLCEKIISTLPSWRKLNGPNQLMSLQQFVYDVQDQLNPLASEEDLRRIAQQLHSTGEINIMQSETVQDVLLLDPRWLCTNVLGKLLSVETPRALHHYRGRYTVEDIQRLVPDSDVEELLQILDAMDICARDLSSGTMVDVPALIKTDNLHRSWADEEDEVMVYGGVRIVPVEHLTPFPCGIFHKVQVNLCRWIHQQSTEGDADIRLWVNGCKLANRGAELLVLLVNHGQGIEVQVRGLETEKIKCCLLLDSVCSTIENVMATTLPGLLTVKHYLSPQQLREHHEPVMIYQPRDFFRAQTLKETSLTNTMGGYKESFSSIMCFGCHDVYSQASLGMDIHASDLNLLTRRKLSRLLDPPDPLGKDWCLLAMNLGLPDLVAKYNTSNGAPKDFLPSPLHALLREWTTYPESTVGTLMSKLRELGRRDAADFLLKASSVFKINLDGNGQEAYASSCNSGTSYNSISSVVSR
Serine/threonine-protein kinase D2 (Homo sapiens), sequence (Q9BZL6 whole entry): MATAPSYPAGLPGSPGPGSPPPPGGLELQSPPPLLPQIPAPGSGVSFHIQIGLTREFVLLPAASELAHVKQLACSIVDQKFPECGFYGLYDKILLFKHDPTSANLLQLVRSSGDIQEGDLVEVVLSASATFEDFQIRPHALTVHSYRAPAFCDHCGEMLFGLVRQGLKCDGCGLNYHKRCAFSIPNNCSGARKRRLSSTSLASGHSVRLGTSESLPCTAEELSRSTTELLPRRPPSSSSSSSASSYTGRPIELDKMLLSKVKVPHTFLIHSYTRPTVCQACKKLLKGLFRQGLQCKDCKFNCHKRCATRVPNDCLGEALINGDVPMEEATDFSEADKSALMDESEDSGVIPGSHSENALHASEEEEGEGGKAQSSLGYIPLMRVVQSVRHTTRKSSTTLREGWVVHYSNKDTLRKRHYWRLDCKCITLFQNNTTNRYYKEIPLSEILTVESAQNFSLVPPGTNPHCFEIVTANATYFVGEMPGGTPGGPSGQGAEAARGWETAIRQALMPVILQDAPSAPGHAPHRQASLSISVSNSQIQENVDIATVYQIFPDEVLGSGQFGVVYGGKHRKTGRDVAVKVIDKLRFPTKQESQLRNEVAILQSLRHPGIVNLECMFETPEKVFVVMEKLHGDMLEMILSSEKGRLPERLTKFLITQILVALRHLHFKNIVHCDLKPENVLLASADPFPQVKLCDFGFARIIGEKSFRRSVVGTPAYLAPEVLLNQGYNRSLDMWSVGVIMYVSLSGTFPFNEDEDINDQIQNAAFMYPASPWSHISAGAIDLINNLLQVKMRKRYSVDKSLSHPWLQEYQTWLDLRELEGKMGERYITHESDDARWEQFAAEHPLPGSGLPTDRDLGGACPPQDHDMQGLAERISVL
Tyrosine-protein kinase Fgr (Homo sapiens), sequence (P09769 2-529 limits assumed): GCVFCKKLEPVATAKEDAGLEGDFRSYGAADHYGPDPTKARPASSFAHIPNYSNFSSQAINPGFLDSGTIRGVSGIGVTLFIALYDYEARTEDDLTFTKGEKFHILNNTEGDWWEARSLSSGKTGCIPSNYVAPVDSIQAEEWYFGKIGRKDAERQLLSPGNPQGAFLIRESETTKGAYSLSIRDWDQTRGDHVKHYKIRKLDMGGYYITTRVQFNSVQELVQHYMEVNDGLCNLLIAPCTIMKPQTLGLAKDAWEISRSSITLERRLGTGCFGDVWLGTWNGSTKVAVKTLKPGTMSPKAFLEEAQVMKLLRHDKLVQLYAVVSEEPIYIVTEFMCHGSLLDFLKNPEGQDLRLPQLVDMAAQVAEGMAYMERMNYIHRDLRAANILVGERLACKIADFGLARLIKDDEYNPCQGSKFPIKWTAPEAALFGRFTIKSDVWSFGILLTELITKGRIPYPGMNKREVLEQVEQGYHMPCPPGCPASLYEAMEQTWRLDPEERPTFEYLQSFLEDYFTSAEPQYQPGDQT

bioavailability [1]: 24%
clearance [2]: 5.83 mL/min/kg
clearance [3]: 12.8 mL/min/kg
AUC at 24 h [4]: 615 ng·h/mL
residual activity [5]: 96%
residual activity [6]: 111%
residual activity [7]: 80.5%
residual activity [8]: 118%
residual activity [9]: 114%
residual activity [10]: 110%
residual activity [11]: 108%
residual activity [12]: 102%
residual activity [14]: 101%
residual activity [15]: 95%
residual activity [16]: 100%
residual activity [17]: 102%
residual activity [18]: 104%
SMILES: C[C@@H]1CCc2ncc(F)cc2[C@H]2CCCN2c2ccn3ncc(c3n2)C(=O)N1 [SELITRECTINIB]
inhibition (DK-MG): inactive
inhibition (A 172): inactive
inhibition (SK-N-DZ): inactive
inhibition (AN3-CA): inactive
inhibition (SK-N-FI): inactive
inhibition (BHT-101): inactive
inhibition (HEL 92.1.7): inactive
inhibition (SW1353): inactive
inhibition (BT-549): inactive
inhibition (T-24): inactive
inhibition (SAOS-2): inactive
inhibition (TPC1): inactive
inhibition (Caov-3 cell line): inactive
inhibition (UMUC3): inactive
inhibition (CHL-1): inactive
residual activity [13]: 120%
